Experimental data reported in PubChem BioAssay (NCI).
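48-hour exposure; five concentrations; linearly interpolated endpoints. TGI: total growth inhibition.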

Tests used:
Experiment in all cases: NCI tumour cell line growth inhibition, 48 h
A498 renal = test system: A498 renal
A549 NSCLC = test system: A549 NSCLC
ACHN renal = test system: ACHN renal
HL-60(TB) leukemia = test system: HL-60(TB) leukemia
MALME-3M melanoma = test system: MALME-3M melanoma
NCI-H226 lung = test system: NCI-H226 lung
NCI-H460 lung = test system: NCI-H460 lung
NCI-H522 lung = test system: NCI-H522 lung
NCI/ADR-RES ovarian = test system: NCI/ADR-RES ovarian
OVCAR-5 ovarian = test system: OVCAR-5 ovarian
RXF 393 renal = test system: RXF 393 renal
SF-268 CNS = test system: SF-268 CNS
SR leukemia = test system: SR leukemia
SW-620 colon = test system: SW-620 colon
U251 CNS = test system: U251 CNS

| SMILES | TGI (A498 renal) | TGI (A549 NSCLC) | TGI (ACHN renal) | TGI (HL-60(TB) leukemia) | TGI (MALME-3M melanoma) | TGI (NCI-H226 lung) | TGI (NCI-H460 lung) | TGI (NCI-H522 lung) | TGI (NCI/ADR-RES ovarian) | TGI (OVCAR-5 ovarian) | TGI (RXF 393 renal) | TGI (SF-268 CNS) | TGI (SR leukemia) | TGI (SW-620 colon) | TGI (U251 CNS) |
| --- | --- | --- | --- | --- | --- | --- | --- | --- | --- | --- | --- | --- | --- | --- | --- |
| COc1ccc(C(=O)c2sc(Nc3ccc(Cl)cc3)nc2N)cc1 | > 75 µM | > 59.6 µM | > 87.7 µM | > 100 µM | > 59.4 µM | > 100 µM | 36.3 µM | 33.9 µM | > 69.5 µM | > 100 µM | > 54 µM | 43.3 µM | > 45.2 µM | > 100 µM | > 55.5 µM |
| CN(C)C(=S)/N=c1\ssc(=S)n1Cc1cccnc1 | > 100 µM | > 100 µM | > 100 µM | > 57.8 µM | > 100 µM | > 100 µM | > 95.7 µM | 9.61 µM | 4.51 µM | > 100 µM | 17.8 µM | > 100 µM | > 100 µM | > 53.2 µM | > 94.9 µM |
| C=CCOC(=O)NC1C(OC(C)[C@@H](NC(=O)OCc2ccccc2)C(=O)OC(C)(C)C)OC(COC(C)=O)C(OC(C)=O)C1OC(C)=O (stereo not given in full) | > 100 µM | > 100 µM | > 100 µM | > 100 µM | > 100 µM | > 100 µM | > 100 µM | > 100 µM | > 100 µM | > 100 µM | > 100 µM | > 100 µM | > 100 µM | > 100 µM | > 100 µM |
| NC(=O)c1cc2ccc(O)cc2oc1=Nc1ccccc1 | 68.1 µM | > 100 µM | > 100 µM | 62.4 µM | > 100 µM | 88.6 µM | > 100 µM | 77.9 µM | > 100 µM | > 100 µM | > 100 µM | > 100 µM | 53.9 µM | > 100 µM | > 100 µM |
| COc1ccc(-n2cnc3c2NC(C)(C)N=C3C(N)=O)c(OC)c1 | > 100 µM | > 100 µM | > 100 µM | > 100 µM | > 100 µM | > 100 µM | > 100 µM | > 100 µM | > 100 µM | > 100 µM | > 100 µM | > 100 µM | > 100 µM | > 100 µM | > 100 µM |
| CC(=O)OCC1OC(c2nc3ccccc3s2)=CC(OC(C)=O)C1OC(C)=O (stereo not given) | > 100 µM | > 100 µM | > 100 µM | > 100 µM | > 100 µM | > 100 µM | > 100 µM | > 100 µM | > 100 µM | > 100 µM | > 100 µM | > 100 µM | > 100 µM | > 100 µM | > 100 µM |
| Cn1c2ccc3cc2c(=S)c2cc(ccc21)OCCOCCOCCOCCOCCO3 | > 10 µM | > 10 µM | > 10 µM | > 10 µM | > 10 µM | > 10 µM | > 10 µM | > 10 µM | > 10 µM | > 10 µM | > 10 µM | > 10 µM | > 10 µM | > 10 µM | > 10 µM |
| C=CCC1(OC(C)=O)C2OC(=O)C1(O)OCC2O (stereo not given) | > 100 µM | > 100 µM | > 100 µM | > 100 µM | > 100 µM | > 100 µM | > 100 µM | > 100 µM | > 100 µM | > 100 µM | > 100 µM | > 100 µM | > 100 µM | > 100 µM | > 100 µM |
| CCCCc1ccc(Nc2nc(SC)c3[nH]cnc3n2)cc1 | > 78.5 µM | > 100 µM | > 100 µM | > 46.4 µM | > 100 µM | > 100 µM | > 100 µM | > 100 µM | > 100 µM | > 100 µM | > 100 µM | > 100 µM | 9.69 µM | > 100 µM | > 100 µM |
| O=c1ccn([C@@H]2C[C@@H]2CO)c(=O)[nH]1 | > 100 µM | > 100 µM | > 100 µM | > 100 µM | > 100 µM | > 100 µM | > 100 µM | > 100 µM | > 100 µM | > 100 µM | > 100 µM | > 100 µM | > 100 µM | > 100 µM | > 100 µM |
| Clc1cc(Cl)cc(C=NC23CC4CC(CC(C4)C2)C3)c1 | > 10 µM | > 10 µM | > 10 µM | > 10 µM | > 10 µM | > 10 µM | > 10 µM | > 10 µM | > 10 µM | > 10 µM | > 10 µM | > 10 µM | > 10 µM | > 10 µM | > 10 µM |
| C=CCc1cccc2cc(C(=O)Nc3ccccc3)c(=N)oc12 | 50.3 µM | > 100 µM | > 100 µM | > 100 µM | 58.7 µM | > 100 µM | > 100 µM | > 100 µM | > 100 µM | > 100 µM | > 100 µM | > 100 µM | > 100 µM | > 100 µM | > 100 µM |
| CCn1c(SCC(=O)NNC(=S)Nc2ccc([N+](=O)[O-])cc2)nc2ccccc2c1=O | > 100 µM | > 100 µM | > 100 µM | > 100 µM | > 100 µM | > 100 µM | > 100 µM | > 100 µM | > 100 µM | > 100 µM | > 100 µM | > 100 µM | > 100 µM | > 100 µM | > 100 µM |
| CCOP(=O)(OCC)C(Nc1ccc(Br)cc1)c1cccc([N+](=O)[O-])c1 (stereo not given) | 31.1 µM | 34.7 µM | 47.1 µM | 55.1 µM | 37.9 µM | 38.3 µM | 29.3 µM | 28 µM | 44.8 µM | 67.6 µM | 31.5 µM | 43.6 µM | 56.2 µM | 35.4 µM | 36.1 µM |
| CN(C)C(=S)/N=c1\ssc(=S)n1Cc1ccccc1 | > 69.5 µM | 56 µM | > 56.2 µM | 5.31 µM | 30.7 µM | 28 µM | 22.6 µM | 0.617 µM | 0.401 µM | > 63.1 µM | 1 µM | > 63.1 µM | 37.3 µM | > 46.4 µM | 18.6 µM |
| Brc1cc(CCOC2CCCCO2)c(-c2sccc2CCOC2CCCCO2)s1 (stereo not given) | > 100 µM | > 100 µM | > 100 µM | 42.3 µM | 87.7 µM | > 100 µM | > 100 µM | > 69.6 µM | > 100 µM | > 100 µM | 3 µM | > 100 µM | 49.1 µM | > 100 µM | > 100 µM |
